Consider eight compounds from patent US20180344763A1, “METHODS FOR ADVERSELY AFFECTING BIOFILMS” (Commonwealth Scientific and Industrial Research Organisation, priority 2015, published 2018).

Values after ≈ are worked out from the molar mass of the structure shown. Bounds are passed on as bounds.

The test system of assay [1] is C. albicans. The assay is described as follows: Broth microdilution MIC, planktonic cells. Format: cell-based, Candida albicans. The note with it: C. albicans single species culture, RPMI-1640, 48 h. As for the experimental part: (§1) Minimum inhibitory concentrations (MICs) for antibacterial and antifungal agents were determined using the broth microdilution method according to CLSI guidelines M07-A9 (for S. aureus) and M27-A3 (for C. albicans), but replacing Muller-Hinton broth with RPMI-1640 for antibacterial MIC testing. One hundred microlitres of two-fold serial dilutions of the drugs prepared in RPMI-1640 were added into the wells of 96-well microplates. Exponentially grown cultures were diluted in RPMI-1640 to a density of ˜1×10^3 CFU/mL for C. albicans and ˜1×10^6 CFU/mL for S. aureus and 100 μL were added to each well. Microplates were incubated for 18 h at 35° C. for S. aureus and 48 h for C. albicans. Bacterial or fungal growth was examined visually with the aid of a mirror reader. The antibacterial MIC was defined as the lowest concentration resulting in complete growth inhibition. The MIC of antifungals was read as the lowest concentration that prevents discernible growth for amphotericin B or polymers, or as the lowest concentration that inhibits at least 50% of fungal growth for fluconazole and caspofungin, corresponding to a score of zero or two in the CLSI M27-A3 protocol.

In another assay the test system is C. albicans biofilms. The assay is described as follows: Antimicrobial susceptibility of single biofilm (XTT, biofilm MIC80). The assay is classed as cell-based, Candida albicans. The note with it: for Biofilm MIC80: C. albicans single species biofilm, 48 h treatment; for Activity against C. albicans monomicrobial biofilms: compared with planktonic growth. The method, then:
(§2) Single biofilms of S. aureus or C. albicans were set up in 96-well microplates as described above. After overnight incubation, the cell suspensions were aspirated and the wells were rinsed twice with 100 μL of PBS per well to remove non-adherent cells. Two hundred microlitres of antimicrobial agents were added into each well, and the treatments lasted for 18 h for S. aureus and 48 h for C. albicans. After the treatment, the suspensions were removed and the microwells were washed twice with PBS. Two hundred microlitres of 2, 3-bis (2-methoxy-4-nitro-5-sulfophenyl)-5-[(phenylamino) carbonyl]-2H-tetrazolium hydroxide (XTT, 0.5 mg/L) solution were added into each well and the microplate were incubated at 37° C. in the dark for 2 h. One hundred microliters of XTT solution were transferred to a new microplate and read at OD492. Alternatively, the efficacy of antimicrobial agents against biofilms was determined based on the reduction in viable counts after exposure to antimicrobials. The ratio of cell survival (cell density after antimicrobial treatment) relative to antimicrobial-free culture (cell density of the drug-free biofilms) (×100) was calculated.

The subject of another assay is S. aureus biofilms. The description is as above. The assay is classed as cell-based, Staphylococcus aureus. As to conditions: S. aureus single species biofilm, 18 h treatment. As for the experimental part: as §2
Assay [2] relates to C. albicans 24 h single biofilms. The assay is described as follows: Catheter lock solution re-growth assay (MBEC). Format: cell-based, Candida albicans. The note with it: C. albicans 24 h biofilm, 18 h exposure. As for the experimental part: (§3) Biofilms were washed three times with saline to remove the residual antimicrobial agents. Two hundred microliter volumes of TSB were then added to each well and microplates were incubated at 35° C. for a further 48 h. A microplate shaker (speed 2) ([…], Flow laboratories, Germany) was used to facilitate the multiplication and release of any living cells remaining in the biofilms. After 48 h, 150 μL of the contents in each well in the microplate was transferred to a U-bottom microplate and examined visually for turbidity. The lowest concentration of antimicrobial agents corresponding to clear wells was defined as the minimum biofilm eradication concentration (MBEC) for successful use as CLS.

Assay [3] has as its system S. aureus 24 h single biofilms. The assay is described as follows: Catheter lock solution re-growth assay (MBEC). Format: cell-based, Staphylococcus aureus. As to conditions: S. aureus 24 h biofilm, 18 h exposure. The method, then: as §3
Assay [4] has as its system C. albicans-S. aureus polymicrobial biofilms. The assay is described as follows: Catheter lock solution re-growth assay (MBEC). The assay is classed as cell-based, Candida albicans and Staphylococcus aureus. The note with it: polymicrobial 24 h biofilm, 18 h exposure. The method, then: as §3
Assay [5] relates to C. albicans. The assay is described as follows: Planktonic MIC in presence or absence of isolated biofilm matrix. Format: cell-based, Candida albicans. The method, then:
as §1
(§4) Extracellular matrix was isolated from Candida or polymicrobial biofilms following the method reported in PLoS pathogens 2012, 8:e1002848. Biofilms were established by growing cultures in 6-well TCPS microplates for 48 h at 37° C. Supernatants were carefully removed from each well and the biofilms were washed once with sterile distilled water. One millilitre of distilled water was added into each well, and the biofilms were removed using a cell scraper. This step was repeated three times. The suspensions containing dislodged biofilms were then transferred into a 50 ml Falcon tube, sonicated with a Branson Sonicator for 10 min (duty cycle constant, output 20%). The suspensions were vortexed for 2 min at full speed (4×30 s), prior to centrifugation at 6000 rpm for 15 min for 5 times. The supernatants containing the extracellular matrix were removed and stored at −20° C. […]

Assay [6] deals with S. aureus. Kind of assay: Broth microdilution MIC, planktonic cells. The assay is classed as cell-based. As to conditions: Staphylococcus aureus; S. aureus single species culture, RPMI-1640, 18 h.
In assay [7] the test system is S. aureus. The assay is described as follows: Planktonic MIC in presence or absence of isolated biofilm matrix. Format: cell-based, Staphylococcus aureus. As for the experimental part: as §1, §4

In the case of `C[C@@H]1[C@H](O)[C@@H](C)/C=C/C=C/C=C/C=C/C=C/C=C/C=C/[C@H](O[C@@H]2O[C@H](C)[C@@H](O)[C@H](N)[C@@H]2O)C[C@@H]2O[C@](O)(C[C@@H](O)C[C@@H](O)[C@H](O)CC[C@@H](O)C[C@@H](O)CC(=O)O[C@H]1C)C[C@H](O)[C@H]2C(=O)O` [Amphotericin B, amphotericin B], the “Planktonic MIC” value in the assay with C. albicans [1] was 1 µg/mL. In the assay with C. albicans biofilms, the “Biofilm MIC80” value is 1 µg/mL and the “Activity against C. albicans monomicrobial biofilms” value is given as “retaining their activities”.

In the assay with C. albicans [1] (Candida albicans), `CC[C@H](C)C[C@H](C)CCCCCCCCC(=O)N[C@H]1C[C@@H](O)[C@@H](NCCN)NC(=O)[C@@H]2[C@@H](O)CCN2C(=O)[C@H]([C@H](O)CCN)NC(=O)[C@H]([C@H](O)[C@@H](O)c2ccc(O)cc2)NC(=O)[C@@H]2C[C@@H](O)CN2C(=O)[C@H]([C@@H](C)O)NC1=O` [Caspofungin, caspofungin] registered an MIC of 1 µg/mL (≈ 0.915 µM). In the assay with C. albicans biofilms, the “Biofilm MIC80” value was 0.12 µg/mL and the “Activity against C. albicans monomicrobial biofilms” value is given as “retaining their activities”.

`O=C(O)c1cn(C2CC2)c2cc(N3CCNCC3)c(F)cc2c1=O` [Ciprofloxacin, ciprofloxacin]: the “Biofilm MIC80” value in the assay on S. aureus biofilms is above 1024 µg/mL.

As to `CCO` [Ethanol, ethanol], the “MBEC as catheter lock solution” value was 20% (V/V) in assay [2], 20% (V/V) in assay [3], 20% (V/V) in assay [4] and 20 % (V/V) in [4] (listed as ethanol).

For the compound `OC(Cn1cncn1)(Cn1cncn1)c1ccc(F)cc1F` [Fluconazole, fluconazole], in the assay with C. albicans [5] (C. albicans or polymicrobial biofilm matrix), the “Increase in MIC in presence of biofilm matrix” value is 16 fold. Besides, the “MIC, C. albicans biofilm matrix” value in the assay with C. albicans [5] (in presence of C. albicans biofilm matrix) was determined as 8 µg/mL. In addition, in the assay on C. albicans [5] (in presence of polymicrobial biofilm matrix), the “MIC, polymicrobial biofilm matrix” value was 8 µg/mL. Further, the “Biofilm MIC80” value with C. albicans biofilms is above 1024 µg/mL.

Consider `Cc1onc(-c2ccccc2)c1C(=O)N[C@@H]1C(=O)N2[C@@H]1SC(C)(C)[C@@H]2C(=O)O` [Oxacillin, oxacillin], for which the “Biofilm MIC80” value in the assay on S. aureus biofilms was above 1024 µg/mL. This compound also came in with an MIC against S. aureus [6] of 0.06 µg/mL (≈ 0.149 µM).

Regarding `CO[C@H]1/C=C/O[C@@]2(C)Oc3c(C)c(O)c4c(O)c(c(/C=N/N5CCN(C)CC5)c(O)c4c3C2=O)NC(=O)/C(C)=C\C=C\[C@H](C)[C@H](O)[C@@H](C)[C@@H](O)[C@@H](C)[C@H](OC(C)=O)[C@@H]1C` [Rifampicin, rifampicin], the “Biofilm MIC80” value in the assay on S. aureus biofilms is above 1024 µg/mL. In addition, the MIC with S. aureus [6] stood at 0.015 µg/mL (≈ 0.0182 µM).

As to `CN[C@H](CC(C)C)C(=O)N[C@H]1C(=O)N[C@@H](CC(N)=O)C(=O)N[C@H]2C(=O)N[C@H]3C(=O)N[C@H](C(=O)N[C@H](C(=O)O)c4cc(O)cc(O)c4-c4cc3ccc4O)[C@H](O)c3ccc(c(Cl)c3)Oc3cc2cc(c3O[C@@H]2O[C@H](CO)[C@@H](O)[C@H](O)[C@H]2O[C@H]2C[C@](C)(N)[C@H](O)[C@H](C)O2)Oc2ccc(cc2Cl)[C@H]1O` [Vancomycin, vancomycin], the “Biofilm MIC80” value in the assay with S. aureus biofilms is above 1024 µg/mL. Further, the MIC against S. aureus [6] came out at 1 µg/mL (≈ 0.69 µM); in the assay on S. aureus [7] (Staphylococcus aureus, read-out: MIC, medium only), 2 µg/mL (≈ 1.38 µM). For the same compound, in the assay with S. aureus [7] (S. aureus, in presence of C. albicans biofilm matrix), the “MIC, C. albicans biofilm matrix” value was 1 µg/mL. The “MIC, polymicrobial biofilm matrix” value in the assay on S. aureus [7] (S. aureus, in presence of polymicrobial biofilm matrix) is 2 µg/mL.
